Assay results taken from patent publication US8367004B2, “Apparatus and methods for nanoparticle generation and process intensification of transport and reaction systems” (Microfluidics International Corporation, priority 2008, dated 2013).
Values joined by “and” are separate entries in the source; they are usually repeats but may differ in a detail not shown here. Equal entries are not always repeated.

Key:
Assay type in all cases: physicochemical
[1] = Stability of nanosuspensions
Protocol: (§1) Crystallization experiments using the disclosed apparatus/system were conducted at 138 and 83 MPa (20,000 and 12,000 psi) process pressures. […] The solvents were either dimethyl sulfoxide (DMSO) or N-Methyl-2-Pyrrolidone (NMP), and the antisolvent was water (see TABLE 3). Of note, alternative solvents include methanol, ethanol, acetone, dichloromethane, octanol and isopropyl alcohol, and alternative antisolvents include hexane and heptane. The water volume flow rate was typically 3-10 times the solvent volume flow rate, resulting in supersaturation between 1.4 and 9.
A surfactant was added to the antisolvent (water) in order to: (a) stabilize the nanoparticles and limit their growth, and (b) minimize agglomeration of the particles and to thereby create a stable suspension. Two non-ionic surfactants were used, Solutol® HS 15 (polyoxyethylene esters of 12-hydroxystearic acid; […]) and a hydrophobically modified inulin polymeric surfactant, INUTEK SP1 (Orafti).

[2] = Electron microscopy of particle dimensions and shape
Protocol: A Hitachi S-4800 field-emission SEM was used to examine the surface structure and shape of the drug particles and also to verify qualitatively the particle size obtained from the particle size analyzers.
(§2) Material characterization was performed in the same manner as described above with reference to Example 1.

[3] = Particle size analysis of drug nanosuspensions by light scattering
Protocol: Crystallization experiments were performed using an exemplary reaction processor of the type depicted in FIG. 3. The solvent phase was fed into an intensifier pump using a peristaltic pump. The water phase was placed in the inlet reservoir and gravity fed. The two streams were blended at the inlet to the intensifier pump, noting that a low level of macro-mixing will occur at this process stage.
The total flow rate through the system was controlled by the microreactor design and process pressure. By varying the flow rate through the peristaltic pump at each processing pressure, various mixing ratios of the two streams were achieved. The following solvent-to-water volume ratios were examined: 1:3, 1:4, and 1:10. Equivalently, the water concentrations in the final mixture by weight were […], respectively. A total of 250 ml were processed in each experiment.
In addition to super-saturation, the effect of process pressure, NFN concentration in the solvent stream, and the presence of a surfactant were investigated. […] The concentration of NFN in DMSO varied from 5 to 20 mg NFN/ml DMSO. To determine if a surface active agent could help control particle size, a 1% aqueous solution of Suluton (BASF) was used to replace water as the anti-solvent, the concept being that the hydrophobic group of this amphoteric molecule would interact with the crystal surface at some threshold size, forming a barrier to further transport to and/or along the surface.
To provide appropriate controls for comparison, additional crystal production experiments were conducted by mixing the NFN/DMSO solution with water in a beaker at very low shear conditions. After mixing to obtain uniformity, NFN was allowed to form crystals under quiescent conditions. Size and shape characterization studies were performed. The crystals were then suspended in a saturated solution to conduct particle size reduction experiments under high shear rates using standard Microfluidizer® technology. The purpose was to compare this size reduction process on already grown crystals (“top-down” process) with the in situ process of growing crystal to the desired size with the apparatus/system of the present disclosure (“bottom-up” process).
The particle size distribution of the nano-suspensions was measured by two different methods: • (a) Light scattering using a Horiba 910 particle size analyzer: This instrument has a wide dynamic range of between 20 nm-1000 microns. • (b) Dynamic light scattering using a Malvern NanoS particle size analyzer: This instrument has a dynamic range of 0.5 nm-6 microns
as §1
For the “top down” control experiments, suspensions of micron size crystals were processed with a conventional Microfluidizer® high shear processor. These crystals had been grown under no shear conditions by pouring the solvent and antisolvent streams into a beaker and then allowing the crystals to grow without stirring the fluids.
as §2

[4] = Theoretical efficiency of solvent/antisolvent crystallization; settings: 138 MPa
Excerpt: (§3) The solubility data were used to estimate super-saturation ratios and the theoretical efficiency of the process, which is defined as the percentage of the drug present in the solvent that precipitates as the solvent and antisolvent streams mix.

[5] = XRD percent crystallinity and crystallite size
Protocol: The samples were analyzed using a Rigaku Ultima III diffractometer. XRD analysis was used to investigate the effect of the processing conditions on the crystalline characteristics, i.e., structure, percent of crystallinity and crystallite size of NFN.

[6] = Solubility of NFN in water/DMSO mixtures (batch, gravimetric); settings: for NFN solubility / % NFN precipitation from saturated DMSO solution: 20° C.
Protocol: Water was mixed with a DMSO-NFN solution of known concentration, while maintaining miscible conditions, to obtain a super-saturation state. […] The crystals were filtered from the liquid, then dried in a vacuum oven for about 10 hours at 90° C., and weighed. The filtered liquid phase was evaporated to dryness and the mass of the solid residue determined gravimetrically. The mass balance of the NFN (total amount recovered/amount dissolved) was also determined to establish precision of the solubility limit estimate. The closure was always greater than 90 percent.
as §3

[7] = Mass transfer study, octanol phase to water phase; settings: transfer from an octanol phase to a water phase
Protocol: The interfacial area in process intensification equipment can be quantified by performing mass transfer studies. In particular, a solute is introduced into the system of interest (e.g. methanol and soybean oil) and the mass transfer rate of this solute from one phase to the other is measured. The interfacial area can then be calculated. In order to accomplish this determination, it is necessary to have an estimate of the mass transfer coefficients in the individual phases—which can be determined through bench-top experiments. Reactant systems may be processed in the disclosed apparatus/system and a measurement of inlet concentration of the solute is made. The system is run at different flow rates until the concentration at the outlet is equal to the equilibrium concentration. […] The interfacial area can then be obtained.

[8] = suspension from Disclosed System
[9] = Disclosed System, solvent, surfactant, pressure per Table 3
[10] = overnight, particles produced with disclosed system
[11] = particles produced with control method
[12] = NFN nanosuspension from disclosed system, SEM
[13] = 138 MPa, 5 mg NFN/ml DMSO, DMSO:water 1:4, passed twice, Horiba
[14] = Control (beaker, no shear), Solutol, SLS

## CC[C@H]1OC(=O)[C@H](C)[C@@H](O[C@H]2C[C@@](C)(OC)[C@@H](O)[C@H](C)O2)[C@H](C)[C@@H](O[C@@H]2O[C@H](C)C[C@H](N(C)C)[C@H]2O)[C@](C)(O)C[C@@H](C)CN(C)[C@H](C)[C@@H](O)[C@]1(C)O [Azithromycin]
[1]; in solvent and antisolvent mixture, and in water after solvent removed
  stability of nanosuspension: stable
[1]; [8]
  Stability: Stable
[2]; Disclosed System
  Shape: Spheroidal
[3]; [9]
  median particle size: 50-100 nm

## CCOC(=O)N1CCC(=C2c3ccc(Cl)cc3CCc3cccnc32)CC1 [Loratadine]
[2]; Disclosed System, INUTEK (DMSO)
  Shape: Needle
[2]; Disclosed System, INUTEK (NMP)
  Shape: Needle
[2]; [10]
  needle length: 10-20 microns
  needle width: 0.5-2 microns
[2]; [11]
  needle length: hundreds of microns
  needle width: tens of microns
[3]; Disclosed System, INUTEK (DMSO), DLS
  median particle size: 332 nm
[3]; Disclosed System, INUTEK (NMP), DLS
  median particle size: 379 nm
[3]; Disclosed System, Solutol (DMSO), DLS
  median particle size: 90 nm
[3]; Disclosed System, Solutol (NMP), DLS
  median particle size: 183 nm
[3]; INUTEK as surfactant
  particle size: 332-379 nm
[3]; Solutol as surfactant, DMSO and NMP
  initial particle size: about 90 nm

## CCn1cc(C(=O)O)c(=O)c2cc(F)c(N3CCNCC3)cc21 [NFN, Norfloxacin]
[4]; supersaturation ratio about 1.5
  theoretical efficiency (percentage of NFN that precipitates): 32%
[4]; supersaturation ratio about 7
  theoretical efficiency (percentage of NFN that precipitates): 85%
[5]; As purchased
  Average Crystallite Size: 441 Å
  Percent Crystallinity (±4%): 84.1%
[5]; Re-crystallized (high shear)
  Average Crystallite Size: 239 Å
  Percent Crystallinity (±4%): 79.7%
[5]; Re-crystallized (low shear)
  Average Crystallite Size: 275 Å
  Percent Crystallinity (±4%): 78% and 77.8%
[5]; Re-crystallized (no shear)
  Average Crystallite Size: 727 Å
  Percent Crystallinity (±4%): 85% and 85.1%
[2]; [12]
  needle length: 200-300 nm
  needle width: 70-100 nm
[2]; crystallized in low shear environment (control)
  particle length: up to 1 mm
[3]; 60 MPa, 10 mg/ml DMSO, DMSO:water 1:4, passed twice
  median particle size: approximately 320 nm
[3]; [13]
  median particle size: 186 nm
  peak of particle size distribution: 166 nm
[3]; 138 MPa, DMSO:water 1:4, passed twice, 5 mg NFN/g DMSO
  median particle size: approximately 190 nm
[3]; 138 MPa, DMSO:water 1:4, passed twice, 20 mg NFN/g DMSO
  median particle size: ~340 nm
[3]; 140 MPa, 10 mg/ml DMSO, DMSO:water 1:4, passed twice
  median particle size: about 200 nm
[3]; NFN nanosuspensions, range over all Example 1 experiments
  median particle size: 170-350 nm
[3]; control crystals after 30 passes at 207 MPa in standard Microfluidizer (top-down)
  median particle size: 428 nm
[3]; with Suluton surfactant
  median particle size: 204 nm
[3]; without surfactant
  median particle size: 209 nm
[6]; 0.00 wt % water in water/DMSO solution
  NFN solubility: 21.00 mg drug/g solution
[6]; 0.00 wt % water
  % NFN precipitation from saturated DMSO solution: 0.00%
[6]; 9.17 wt % water in water/DMSO solution
  NFN solubility: 7.18 mg drug/g solution
[6]; 9.17 wt % water
  % NFN precipitation from saturated DMSO solution: 43.39%
[6]; 28.04 wt % water in water/DMSO solution
  NFN solubility: 1.57 mg drug/g solution
[6]; 47.62 wt % water in water/DMSO solution
  NFN solubility: 0.86 mg drug/g solution
[6]; 47.62 wt % water
  % NFN precipitation from saturated DMSO solution: 91.43%
[6]; 50 wt % water
  % of NFN that precipitates: about 92%
[6]; 57.69 wt % water in water/DMSO solution
  NFN solubility: 0.64 mg drug/g solution
[6]; 57.69 wt % water
  % NFN precipitation from saturated DMSO solution: 92.86%
[6]; 73.17 wt % water in water/DMSO solution
  NFN solubility: 0.71 mg drug/g solution
[6]; 73.17 wt % water
  % NFN precipitation from saturated DMSO solution: 89.52%
[6]; 90.19 wt % water in water/DMSO solution
  NFN solubility: 0.00 mg drug/g solution
[6]; 90.19 wt % water
  % NFN precipitation from saturated DMSO solution: 100.00%
[6]; ambient temperature
  solubility limit of NFN in DMSO: about 21 mg NFN/g DMSO
[6]; dilution of DMSO solution to 28 wt % water
  reduction of NFN solubility: over 13 times

## NC(=O)N1c2ccccc2CC(=O)c2ccccc21 [Oxycarbazepine]
[1]; Control
  Stability: Stable
[1]; Control with site reduction after 25 passes
  Stability: Stable
[1]; [8]
  Stability: Stable
[1]; suspension from Disclosed System, listed as oxycarbazepine
  Stability: stable
[2]; Control
  Shape: Needle
[3]; [14]
  Median Particle Size (needle length): 20,000 nm
  Median Particle Size (needle width): 5000 nm
[3]; Control with site reduction after 25 passes, SLS
  median particle size: 1200 nm
[3]; Disclosed System
  particles by volume in the range of 2.5-6 microns: about 5%
[3]; Disclosed System, SLS
  larger peak of bimodal particle size distribution: about 1 micron
  smaller peak of bimodal particle size distribution: about 340 nm
[3]; [9]
  median particle size: 767 nm
[3]; control conditions (beaker)
  needle length: about 20 microns
  needle width: about 5 microns
[3]; control sample after 25 passes
  population of particles with sizes in the range of 4-6 microns: about 5%
[3]; control sample after 25 passes through standard Microfluidizer processor
  median particle size: 1.2 microns

## CC(=O)Oc1ccccc1C(=O)O [aspirin]
[7]
  interfacial transfer coefficients: ≤ 0.5 m/s
